# According to US20250057846A1, “COMBINATION OF A TASK1/3 CHANNEL BLOCKER WITH A MUSCARINIC RECEPTOR ANTAGONIST FOR THE TREATMENT OF SLEEP APNEA” (BAYER AKTIENGESELLSCHAFT, priority 2021, published 2025):
# Test system: pig model of obstructive sleep apnea (OSA)
# Assay: pig model of obstructive sleep apnea (OSA): collapsibility of the upper respiratory tract under negative pressure
# Format: in vivo, German Landrace pigs
# Source text: The therapeutic potential of the combination of a TASK1/3 channel blocker with a muscarinic receptor antagonist according to the present invention in sleep apnea can be assessed preclinically in a pig model of obstructive sleep apnea (OSA).
# Using negative pressure, it is possible to induce collapse and thus obstruction of the upper respiratory tract in anaesthetized, spontaneously breathing pigs (Wirth K. J. et al., Sleep 36(5) (2013) pp. 699-708).
# German Landrace pigs are used for the model. The pigs are anaesthetized and tracheotomized. Two tracheal cannulas are inserted into the trachea, one into the rostral part and the other into the caudal part of the trachea.
# Using a connection piece, the rostral cannula is connected to a tube to the negative pressure device and to the distal tracheal cannula. The distal tracheal cannula is additionally connected to a tube with an open end to atmosphere via a connection piece that served for free tracheal breathing, circumventing the upper airway. By appropriate opening and clamping of those tubes breathing can be switched from nasal breathing to breathing through the caudal tracheal cannula, circumventing the upper airway, and the (isolated) upper airway can be connected to the negative pressure device, causing airflow in the inspiratory direction.
# At certain points in time, the collapsibility of the upper respiratory tract is tested by having the pig breathe via the caudal cannula and applying negative pressures of −50, −100 and −150 cm water head (cm H2O) to the upper respiratory tract. This causes the upper respiratory tract to collapse, which manifests itself in an interruption of the airflow and a pressure drop in the tube system. This test is conducted prior to the administration of the test substance and at certain intervals after the administration of the test substance. An appropriately effective test substance can prevent this collapse of the respiratory tract in the inspiratory phase.
# [1] = oxybutynin i.v. bolus 1 mg/kg then i.v. infusion 0.275 mg/kg/h for four hours, given at 0 min, time 0 min
# [2] = R-oxybutynin i.v. bolus 1 mg/kg then i.v. infusion 0.275 mg/kg/h for four hours, given at 0 min, time 0 min
# [3] = R-oxybutynin i.v. bolus 1 mg/kg then i.v. infusion 0.275 mg/kg/h for four hours, given at 0 min, time 10 min
# [4] = R-oxybutynin i.v. bolus 1 mg/kg then i.v. infusion 0.275 mg/kg/h for four hours, given at 0 min, time 30 min
# [5] = R-oxybutynin i.v. bolus 1 mg/kg then i.v. infusion 0.275 mg/kg/h for four hours, given at 0 min, time 60 min
# [6] = R-oxybutynin i.v. bolus 1 mg/kg then i.v. infusion 0.275 mg/kg/h for four hours, given at 0 min, time 120 min
# [7] = R-oxybutynin i.v. bolus 1 mg/kg then i.v. infusion 0.275 mg/kg/h for four hours, given at 0 min, time 180 min
# [8] = R-oxybutynin i.v. bolus 1 mg/kg then i.v. infusion 0.275 mg/kg/h for four hours, given at 0 min, time 240 min
# [9] = R-oxybutynin i.v. bolus 1 mg/kg then i.v. infusion 0.275 mg/kg/h for four hours, given at 0 min, time 300 min
# [10] = combination experiment: R-oxybutynin i.v. bolus 1 mg/kg then infusion 0.275 mg/kg/h for four hours at 0 min, nasal TASK1/3 channel blocker only given at 120 min, time 0 min
# [11] = combination experiment: R-oxybutynin i.v. bolus 1 mg/kg then infusion 0.275 mg/kg/h for four hours at 0 min, nasal TASK1/3 channel blocker only given at 120 min, time 10 min
# [12] = combination experiment: R-oxybutynin i.v. bolus 1 mg/kg then infusion 0.275 mg/kg/h for four hours at 0 min, nasal TASK1/3 channel blocker only given at 120 min, time 30 min
# [13] = combination experiment: R-oxybutynin i.v. bolus 1 mg/kg then infusion 0.275 mg/kg/h for four hours at 0 min, nasal TASK1/3 channel blocker only given at 120 min, time 60 min
# [14] = combination experiment: R-oxybutynin i.v. bolus 1 mg/kg then infusion 0.275 mg/kg/h for four hours at 0 min, nasal TASK1/3 channel blocker only given at 120 min, time 90 min
# [15] = combination experiment: R-oxybutynin i.v. bolus 1 mg/kg then infusion 0.275 mg/kg/h for four hours at 0 min, time 120 min = time of nasal application of TASK1/3 channel blocker
# [16] = TASK1/TASK3 channel blocker alone, intranasal 0.3 μg, given at 0 min, time 0 min
# [17] = TASK1/TASK3 channel blocker alone, intranasal 0.3 μg, given at 0 min, time 10 min
# [18] = TASK1/TASK3 channel blocker alone, intranasal 0.3 μg, given at 0 min, time 30 min
# [19] = TASK1/TASK3 channel blocker alone, intranasal 0.3 μg, given at 0 min, time 60 min
# [20] = TASK1/TASK3 channel blocker alone, intranasal 0.3 μg, given at 0 min, time 90 min
structure (smiles),measurement,setting,value
"CCN(CC)CC#CCOC(=O)C(O)(c1ccccc1)C1CCCCC1 (stereo not shown) [oxybutynin, Oxybutynin]","Percent pigs without collaps −50 cm H2O, %",[1],0%
same,"Percent pigs without collaps −100 cm H2O, %",[1],0%
same,"Percent pigs without collaps −150 cm H2O, %",[1],0%
same,"time points at which upper airway collapsibility was inhibited at all three negative pressures of −50, −100 and −150 cm head (cm H2O) in all pigs","oxybutynin i.v. bolus 1 mg/kg then i.v. infusion 0,275 mg/kg/h for four hours",at no time point
"CCN(CC)CC#CCOC(=O)[C@](O)(c1ccccc1)C1CCCCC1 [R-oxybutynin, R-Oxybutynin]","time points at which upper airway collapsibility was inhibited at all negative pressures of −50, −100 and −150 cm head (cm H2O) in all pigs","R-Oxybutynin i.v. bolus 1 mg/kg then i.v. infusion 0,275 mg/kg/h for four hours",at no time
same,upper airway collapsibility at the negative pressure of −50 cm head (cm H2O),"R-Oxybutynin i.v. bolus 1 mg/kg then i.v. infusion 0,275 mg/kg/h for four hours, time point 60 min after intravenous administration",inhibited
same,"Percent pigs without collaps −50 cm H2O, %",[2],0%
same,"Percent pigs without collaps −100 cm H2O, %",[2],0%
same,"Percent pigs without collaps −150 cm H2O, %",[2],0%
same,"Percent pigs without collaps −50 cm H2O, %",[3],0%
same,"Percent pigs without collaps −100 cm H2O, %",[3],0%
same,"Percent pigs without collaps −150 cm H2O, %",[3],0%
same,"Percent pigs without collaps −50 cm H2O, %",[4],0%
same,"Percent pigs without collaps −100 cm H2O, %",[4],0%
same,"Percent pigs without collaps −150 cm H2O, %",[4],0%
same,"Percent pigs without collaps −50 cm H2O, %",[5],100%
same,"Percent pigs without collaps −100 cm H2O, %",[5],50%
same,"Percent pigs without collaps −150 cm H2O, %",[5],0%
same,"Percent pigs without collaps −50 cm H2O, %",[6],0%
same,"Percent pigs without collaps −100 cm H2O, %",[6],0%
same,"Percent pigs without collaps −150 cm H2O, %",[6],0%
same,"Percent pigs without collaps −50 cm H2O, %",[7],0%
same,"Percent pigs without collaps −100 cm H2O, %",[7],0%
same,"Percent pigs without collaps −150 cm H2O, %",[7],0%
same,"Percent pigs without collaps −50 cm H2O, %",[8],0%
same,"Percent pigs without collaps −100 cm H2O, %",[8],0%
same,"Percent pigs without collaps −150 cm H2O, %",[8],0%
same,"Percent pigs without collaps −50 cm H2O, %",[9],0%
same,"Percent pigs without collaps −100 cm H2O, %",[9],0%
same,"Percent pigs without collaps −150 cm H2O, %",[9],0%
same,"Percent pigs without collaps −50 cm H2O, %",[10],0%
same,"Percent pigs without collaps −100 cm H2O, %",[10],0%
same,"Percent pigs without collaps −150 cm H2O, %",[10],0%
same,"Percent pigs without collaps −50 cm H2O, %",[11],0%
same,"Percent pigs without collaps −100 cm H2O, %",[11],0%
same,"Percent pigs without collaps −150 cm H2O, %",[11],0%
same,"Percent pigs without collaps −50 cm H2O, %",[12],0%
same,"Percent pigs without collaps −100 cm H2O, %",[12],0%
same,"Percent pigs without collaps −150 cm H2O, %",[12],0%
same,"Percent pigs without collaps −50 cm H2O, %",[13],100%
same,"Percent pigs without collaps −100 cm H2O, %",[13],33%
same,"Percent pigs without collaps −150 cm H2O, %",[13],0%
same,"Percent pigs without collaps −50 cm H2O, %",[14],0%
same,"Percent pigs without collaps −100 cm H2O, %",[14],0%
same,"Percent pigs without collaps −150 cm H2O, %",[14],0%
same,"Percent pigs without collaps −50 cm H2O, %",[15],0%
same,"Percent pigs without collaps −100 cm H2O, %",[15],0%
same,"Percent pigs without collaps −150 cm H2O, %",[15],0%
"COc1ccc(Cl)c(C(=O)N2C3CCC2CN(Cc2c(-c4ccc(C(C)C)cc4)nc4ncccn24)C3)n1 [(3-Chloro-6-methoxypyridin-2-yl)(3-{[2-(4-isopropylphenyl)imidazo[1,2-a]pyrimidin-3-yl]methyl}-3,8-diazabicyclo[3.2.1]oct-8-yl)methanone]",effect of the dose on upper airway collapsibility,"TASK1/TASK3 channel blocker alone, 0.3 μg",non effective dose
same,"Percent pigs without collaps −50 cm H2O, %",[16],0%
same,"Percent pigs without collaps −100 cm H2O, %",[16],0%
same,"Percent pigs without collaps −150 cm H2O, %",[16],0%
same,"Percent pigs without collaps −50 cm H2O, %",[17],33%
same,"Percent pigs without collaps −100 cm H2O, %",[17],33%
same,"Percent pigs without collaps −150 cm H2O, %",[17],0%
same,"Percent pigs without collaps −50 cm H2O, %",[18],0%
same,"Percent pigs without collaps −100 cm H2O, %",[18],0%
same,"Percent pigs without collaps −150 cm H2O, %",[18],0%
same,"Percent pigs without collaps −50 cm H2O, %",[19],0%
same,"Percent pigs without collaps −100 cm H2O, %",[19],0%
same,"Percent pigs without collaps −150 cm H2O, %",[19],0%
same,"Percent pigs without collaps −50 cm H2O, %",[20],0%
same,"Percent pigs without collaps −100 cm H2O, %",[20],0%
same,"Percent pigs without collaps −150 cm H2O, %",[20],0%
